Measured values taken from patent publication US6211215A, “Heterocyclic compounds, their production and use” (Takeda Chemical Industries, Ltd., priority 1996, dated 2001).

Experiments:
[1] = Body weights of mice during the in vivo tumor experiments; set-up: species or system Balb/C strain athymic nude mice
Method: 5,000,000 cells of human breast cancer cell line, MDA-MB-453, were suspended in a gelmatrix solution. The suspension was subcutaneously implanted at the breast in 7-week-old female Balb/C strain athymic nude mice (Friedman R. et al., Proceedings of the National Academy of Sciences of the U.S.A. Vol. 87, pp.6698-6702, 1990). Twelve days after the implantation, the diameters of tumors were determined. For the experiment were used 5 mice per group with similar tumor size. […] On the day when the dosing was ended, the diameters of tumors were measured. Tumor volume was calculated by the following formula: volume of tumor=longest diameter×shortest diameter×shortest diameter×1/2. […] The body weights of mice administered with Compound 8 of the present invention were measured during the experiment to observe no decrease.
5,000,000 cells of human breast cancer cell line, MDA-MB-453, were suspended in a gelmatrix solution. […] Twelve days after the implantation, the diameters of tumors were determined. […] On the day when the dosing was ended, the diameters of tumors were measured. Tumor volume was calculated by the following formula: volume of tumor=longest diameter×shortest diameter×shortest diameter×1/2. […] The body weights of mice administered with compounds of the present invention were measured during the experiment to observe no decrease. […]

[2] = test system: MRC5; assay: Selective in vitro inhibition of breast cancer cell growth; type: cell-based; settings: Homo sapiens, 72 h; Normal MRC5; 3 days; SRB; read-out: IC50, inhibition of cell proliferation
Method: (§1) 100 μl (containing 2,000 cells) of a cell suspension of various human breast cancer cell lines shown in [Table 6] was seeded in each well of the 96-well microtiter plates. The cells were incubated at 37° C. in a 5% carbon dioxide gas incubator. Next day, 100 μl of a 2 fold serial dilution of a compound solution was added to each well. The cultures were incubated for 3 days. The solution containing the compound was removed and the cells were washed with water. To the cells was added a 0.4% (V/W) dye SRB (dissolved in 1% acetic acid) solution to fix and stain the cell protein. The dye solution was removed and the fixed and stained cell protein was washed. The protein-bound dye was extracted with 200 μl of 10 mM Tris buffer. The optical density of the extracted dye was determined at the wavelength of 540 nm to estimate the quantity of the cells in terms of the protein quantity. Designating the protein quantity in the control to which no compound solution was added as 100%, the proportion of the residual protein quantity in each treated group was calculated, and IC50, which was the concentration of the compound required to inhibit the residual protein quantity to 50% the quantity of the control, was calculated.

[3] = test system: WiDr; assay: as above; type: cell-based; settings: Homo sapiens, 72 h; Large intestinal cancer WiDr; 3 days; SRB; read-out: IC50, inhibition of cell proliferation
Method: as §1

[4] = test system: ASPC-1; assay: as above; type: cell-based; settings: Homo sapiens, ASPC1, 72 h; Pancreatic cancer ASPC-1; 3 days; SRB; read-out: IC50, inhibition of cell proliferation
Method: as §1

[5] = test system: BT-20; assay: as above; type: cell-based; settings: Homo sapiens, 72 h; Mammary cancer BT-20; 3 days; SRB; read-out: IC50, inhibition of cell proliferation
Method: as §1

[6] = target: HER2 (Homo sapiens, UniProt P04626); assay: Inhibition of phosphorylation of receptor tyrosine in human breast cancer cells (2), MCF-7, heregulin-stimulated; type: cell-based; set-up: Human breast cancer cell line MCF-7 was used; endogenous in cells; host or cells: MCF-7; settings: heregulin control = 100%, read-out: Phosphorylation of receptor tyrosine residue (%)
Method: Human breast cancer cell line MCF-7 was used. 1,000 μl of the cell suspension (250,000 cells) was seeded in each well of the 24-well plates. The culture were incubated at 37° C. in a 5% carbon dioxide gas incubator. On the next day, 100 μl of the 10-fold serial dilution of each compound solution was added to each well and, 2 hours later, 0.5 μg/ml of heregulin was added to it. After 5 minutes the extract solution was added to it to terminate the reaction, and the protein fraction was extracted. The protein was fractionated by the protein electrophoresis. The protein in the electrophoretic gel was transferred to a nylon filter. The filter was allowed to react with the phosphorylated tyrosine-specific antibody. The reaction product was fluorescence-labeled to expose a photofilm. The intensity of the exposure on the photofilm was quantitated by an image-analyzing apparatus. The proportion of the phosphorylation of HER2 tyrosine in the cells added with a compound solution of each concentration was calculated designating the phosphorylation of HER2 tyrosine in the heregulin-added cells as 100%.

Sequence of HER2 (P04626 23-1255): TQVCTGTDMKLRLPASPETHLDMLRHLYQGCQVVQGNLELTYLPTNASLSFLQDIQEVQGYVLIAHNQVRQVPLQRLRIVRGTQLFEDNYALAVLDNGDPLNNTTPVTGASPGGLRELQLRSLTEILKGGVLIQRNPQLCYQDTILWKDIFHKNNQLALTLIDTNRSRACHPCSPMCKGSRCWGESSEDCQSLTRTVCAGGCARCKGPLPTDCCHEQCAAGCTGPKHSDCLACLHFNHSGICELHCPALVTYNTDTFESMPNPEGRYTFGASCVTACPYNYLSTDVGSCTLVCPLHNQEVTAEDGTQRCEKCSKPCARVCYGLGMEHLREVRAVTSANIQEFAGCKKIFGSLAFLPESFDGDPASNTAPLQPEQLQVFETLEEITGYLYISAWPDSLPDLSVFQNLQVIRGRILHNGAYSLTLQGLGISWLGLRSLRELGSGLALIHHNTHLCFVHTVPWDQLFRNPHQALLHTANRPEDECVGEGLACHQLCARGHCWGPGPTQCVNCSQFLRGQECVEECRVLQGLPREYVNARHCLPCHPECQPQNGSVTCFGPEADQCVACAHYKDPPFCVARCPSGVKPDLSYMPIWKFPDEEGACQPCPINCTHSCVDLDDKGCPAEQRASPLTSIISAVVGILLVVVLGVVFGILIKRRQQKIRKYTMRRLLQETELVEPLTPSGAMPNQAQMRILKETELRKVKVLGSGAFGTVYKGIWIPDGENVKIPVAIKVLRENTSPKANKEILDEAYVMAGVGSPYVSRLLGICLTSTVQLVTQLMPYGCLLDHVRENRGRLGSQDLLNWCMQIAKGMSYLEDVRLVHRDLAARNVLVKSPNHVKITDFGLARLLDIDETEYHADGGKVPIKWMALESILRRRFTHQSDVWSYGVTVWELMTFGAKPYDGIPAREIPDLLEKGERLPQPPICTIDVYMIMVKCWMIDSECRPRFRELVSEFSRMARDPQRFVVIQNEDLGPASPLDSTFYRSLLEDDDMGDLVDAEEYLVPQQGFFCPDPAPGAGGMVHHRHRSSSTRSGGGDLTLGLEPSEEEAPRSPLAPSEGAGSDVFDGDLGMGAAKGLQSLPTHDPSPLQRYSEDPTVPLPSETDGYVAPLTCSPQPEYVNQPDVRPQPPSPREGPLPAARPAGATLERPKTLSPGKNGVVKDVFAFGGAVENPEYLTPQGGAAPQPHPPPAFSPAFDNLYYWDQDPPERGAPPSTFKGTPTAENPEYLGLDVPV

Question: What does the source list for `C(=C\c1nc(COc2ccc(CCCn3ccnc3)cc2)co1)/c1ccccc1` [Compound 8, 4-[4-[3-(1-imidazolyl)propyl]phenoxymethyl]-2-[(E)-2-phenylethenyl]oxazole]?
Answer: Body weight change ([1]; Test Example 8, MDA-MB-453-bearing mice): no decrease; Body weight change ([1]; Test Example 11, LNCaP-bearing mice, oral 30 mg/kg twice daily 21 days): no decrease; IC50 [2]: 15000 nM; IC50 [3]: 2100 nM; IC50 [4]: 2500 nM; IC50 [5]: 520 nM; activity at 0.4 µM ([6]; MCF7, 0.4 μM): 67%; activity at 1.6 µM ([6]; MCF7, 1.6 μM): 41%; activity at 6.3 µM ([6]; MCF7, 6.3 μM): 32%; activity at 25 µM ([6]; MCF7, 25 μM): 30%
